Here are results for 1 molecule from paper PMC6934184, “Selective DNA-PKcs inhibition extends the therapeutic index of localized radiotherapy and chemotherapy” (The Journal of Clinical Investigation, 2019).

SMILES strings stand for the structures.

The assay concerns the target T1, CDK1/cyclin A2 (Homo sapiens, UniProt P06493).
T1 construct: purchased Thermo Fisher Scientific (Life Technologies) SelectScreen
Kind of assay: SelectScreen LanthaScreen. It is filed as binding. The settings on record: 1 µM. The essentials: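 Percent values come from Thermo SelectScreen profiling of NU5455, combining activity and binding assays. CSF1R was run in Z'LYTE format at Km app ATP, and CAMK1 in Adapta format with ATP listed at 10.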

T1 sequence (P06493 whole entry): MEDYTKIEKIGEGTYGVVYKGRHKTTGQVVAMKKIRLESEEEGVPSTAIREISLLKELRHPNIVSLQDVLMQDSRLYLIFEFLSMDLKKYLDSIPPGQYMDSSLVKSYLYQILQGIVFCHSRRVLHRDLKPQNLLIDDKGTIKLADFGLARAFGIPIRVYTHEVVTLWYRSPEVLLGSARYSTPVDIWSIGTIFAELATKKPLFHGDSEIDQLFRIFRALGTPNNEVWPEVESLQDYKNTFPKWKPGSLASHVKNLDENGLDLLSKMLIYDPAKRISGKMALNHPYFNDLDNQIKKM
T1 sequence (P20248 whole entry partner): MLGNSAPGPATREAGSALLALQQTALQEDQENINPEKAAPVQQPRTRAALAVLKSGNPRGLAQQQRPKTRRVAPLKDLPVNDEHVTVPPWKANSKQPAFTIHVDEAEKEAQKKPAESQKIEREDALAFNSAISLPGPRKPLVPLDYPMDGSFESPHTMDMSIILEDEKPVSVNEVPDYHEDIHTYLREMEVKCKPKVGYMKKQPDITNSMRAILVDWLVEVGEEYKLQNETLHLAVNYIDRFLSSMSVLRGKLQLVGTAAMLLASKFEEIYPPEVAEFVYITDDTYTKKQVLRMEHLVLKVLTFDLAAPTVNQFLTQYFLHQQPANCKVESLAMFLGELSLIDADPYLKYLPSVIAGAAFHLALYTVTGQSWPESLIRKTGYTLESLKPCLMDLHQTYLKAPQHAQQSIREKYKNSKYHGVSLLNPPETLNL

With `CN(C(=O)CN1CCOCC1)c1ccc2sc3c(-c4cccc5c(=O)cc(N6CC7CCC(C6)O7)oc45)cccc3c2c1` [NU5455], the “% displacement” value amounted to 3.3%.
